The numbers were not newly measured in patent US20050158402A1, “Preparation of Chinese herbal composite recipe used in environmental sanitation” (priority 2004, published 2005), which cites them from elsewhere.

Entries after “also recorded” stand apart in the source; their conditions may differ.

One data set concerns Shigella species. Conditions: in vitro.
The test system of data set [1] is type A hemolytic Streptococcus.
In another data set the test system is B-streptococcus. The conditions noted are these: 1% matrine, in vitro.
The subject of a further data set is Proteus. Conditions: 1% matrine, in vitro.
For a further data set, the system named is E. Coli. Conditions: 1% matrine, in vitro.
In another data set the test system is Shigella. Conditions: 1% matrine, in vitro.
The next data set concerns Staphylococcus aureaus. Conditions: 1% matrine, in vitro.

Take santol: the “effective to Shigella species” value in the data set with Shigella species is “effective”.

In the case of `C/C(=C/CC[C@]1(C)C2C[C@@H]3[C@H](C2)C31C)CO` [α - santol], the anti-bacteria effects result in the data set on bacteria was “The α - santol and β -santol show stronger anti-bacteria”.

Take `CC[C@@H]1[C@H]2CCCCN3[C@H]2[C@H](C[C@H]3[C@@H]2C[C@H](C)C(=O)O2)[C@@H]2[C@H]1OC(=O)[C@H]2C` [tuberostemonine]: the “paralyze Ascarid” value with Ascarid is on record as “can paralyze”.

On to `Cc1cc(O)c(C(=O)CCC(C)C)c(=O)o1` [pogostone], for which, in [1], the “inhibitive effect on type A hemolytic Streptococcus” value is on record as “stolonifer. It shows certain degree of inhibitive effect on type”. In addition, in the data set with Cryptococcus neoformans, the “inhibitive effects on Cryptococcus neoformans” value is recorded as “The pogostone show apparently inhibitive effects on fungi”. Further, in the data set on Rhizopus stolonifer, the “inhibitive effects on Rhizopus stolonifer” value is reported as “The pogostone show apparently inhibitive effects on fungi”. Further, the “inhibitive effects on C. albicans” value in the data set with C. albicans is listed as “The pogostone show apparently inhibitive effects on fungi”. The “inhibit the growth of fungi such as Penicillum” value in the data set on Penicillum is on record as 22(7): 318) The pogostone can inhibit the growth of fungi.

For the molecule evodiamine, in the data set on Columbia SK viruses, the “anti-viruses effect on rats infected by Columbia SK viruses” value is reported as “anti-viruses effect; also recorded: anti-virus effect”.

Regarding `O=C1CCC[C@@H]2[C@H]3CCCN4CCC[C@@H](CN12)[C@@H]34` [matrine], the “bacteria inhibitive effects on B-streptococcus” value in the data set with B-streptococcus is “bacteria inhibitive effects on Shigella, E. Coli, Proteus,”. For the same molecule, the “bacteria inhibitive effects on Proteus” value in the data set with Proteus is reported as “bacteria inhibitive effects on Shigella, E. Coli, Proteus,”. For the same molecule, the “bacteria inhibitive effects on E. Coli” value in the data set with E. Coli is recorded as “bacteria inhibitive effects on Shigella, E. Coli, Proteus,”. Moreover, the “bacteria inhibitive effects on Shigella” value with Shigella is given as “bacteria inhibitive effects on Shigella, E. Coli, Proteus,”. In the data set with Staphylococcus aureaus, the “bacteria inhibitive effects on Staphylococcus aureaus” value is “bacteria inhibitive effects on Shigella, E. Coli, Proteus,”.

Consider `C=C1[C@@H]2CC[C@@H](C2)[C@@]1(C)CC/C=C(/C)CO` [β -santol], for which, in the data set on bacteria, the anti-bacteria effects result was “The α - santol and β -santol show stronger anti-bacteria”.
